Biological target: T1, human EP2 (PTGER2) (Homo sapiens, UniProt P43116)
T1 construct: Cayman Chemical (Human EP2 Reporter Assay Kit)
Test: EP2 antagonist assay (HEK-293 CNG membrane potential cAMP assay / 293T SEAP reporter assay, PGE2-stimulated)
Type: cell-based
Conditions: EP2 antagonist activity; concentration for 50% inhibition of signal compared to DMSO
From the text: 1. The HEK-293 CNG (Cyclic Nucleotide Gated) cell line expressing a modified CNG channel that leads to cell membrane depolarization in response to elevated intracellular cAMP levels, which can be measured using a fluorescent membrane potential dye, was engineered to express human EP2 (PTGER2) or EP4 (EP4R). The resulting cell line ACTOne™ PTGER2 or ACTOne™ EP4R as well as the fluorescent membrane potential dye were purchased from eEnzyme (Gaithersburg, MD, US) and used in this assay. Briefly, cells were plated at 1.2×10^4 cells/well in 20 μL DMEM supplemented with 2% Fetal Bovine Serum (FBS, VWR International), 1x Penicillin/Streptomycin (GenClone), 0.2 μg/mL puromycin (InvivoGen) and 50 μg/mL G418 (InvivoGen) on a 384 well plate (Greiner). The next day, cells were dye-loaded with 20 μL/well of 1x Dye-loading solution (eENZYME) following the manufacturer's instruction. After 2 hours of incubation at room temperature (RT) in the dark, a pre-read was made to obtain the background signals using CLARIOstar plate reader (BMG LABTECH, Germany) with the following filter settings: excitation=530/20 nm, emission=590/20 nm. Next, a serial dilution of compound (plus a DMSO control) were added to the plate (5 μL/well) and the reaction was incubated at RT for 15 min before adding 5 μL of PGE2 to every well for a final concentration of 5 nM. All wells were duplicated. The plate was then further incubated at RT for 30 min prior to a final read with the same machine settings. Background-subtracted signals were used to calculate IC50 values.
2. Human EP2 and EP4 Reporter Assay Kits were purchased from Cayman Chemical (Ann Arbor, MI, USA). The assay was performed following the provided User Manual. Briefly, a reverse transfection was performed by seeding 6.0×10^4 of 293T cells (ATCC) to each well of the provided Strip Plate coated with a proprietary transfection complex containing DNA constructs for expressing human EP2 or EP4 and a cAMP response element regulated secreted alkaline phosphatase (SEAP) reporter, in 200 μL DMEM supplemented with 2% FBS and incubated for 20-24 hours at 37° C. with 5% CO2. After the incubation, the culture medium was carefully removed, and the cells were replenished with 150 μL pre-warmed serum-free medium. PGE2 and test compounds were prepared together at 4x the desired final concentration, and 50 μL was added to each assigned well with the final concentration of 13 nM and 2 nM PGE2 for EP2 and EP4 assay, respectively. After 6-8 hours of incubation, 10 μL media from each well was transferred to corresponding well of a new plate, which was then sealed and incubated at 65° C. for 30 min. The plate was then cooled down to RT and 50 μL SEAP substrate was added to each well. Luminescence signal was measured using a CLARIOstar plate reader.
The IC50 value was determined as the concentration for 50% inhibition of signal compared to DMSO (A: IC50 […]; B: IC50 between 100 nM and 1,000 nM; C: IC50≥1,000 nM).

T1 sequence (P43116 whole entry): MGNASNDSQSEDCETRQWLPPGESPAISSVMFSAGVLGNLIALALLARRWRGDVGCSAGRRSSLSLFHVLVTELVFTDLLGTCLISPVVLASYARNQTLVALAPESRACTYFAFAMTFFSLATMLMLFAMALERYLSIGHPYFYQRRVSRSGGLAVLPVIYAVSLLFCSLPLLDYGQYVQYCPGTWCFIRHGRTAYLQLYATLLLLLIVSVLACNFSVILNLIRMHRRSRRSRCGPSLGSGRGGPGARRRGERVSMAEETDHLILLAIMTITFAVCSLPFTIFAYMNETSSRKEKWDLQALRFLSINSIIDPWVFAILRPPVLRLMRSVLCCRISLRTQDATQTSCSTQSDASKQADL

Row | Compound | IC50
1 | O=C(NC1CC2(C1)CC(C(=O)O)C2)c1cc(Br)cc2[nH]cc(Sc3ccc(C(F)(F)F)cc3)c12 (racemic) [Example 112, (+) 6-(6-bromo-3-((4-(trifluoromethyl)phenyl)thio)-1H-indole-4-carboxamido)spiro[3.3]heptane-2-carboxylic acid] | 100 to 1000 nM
2 | O=C(NC1CC2(C1)CC(C(=O)O)C2)c1cc(-c2ccccc2)cc2[nH]cc(Sc3ccc(C(F)(F)F)cc3)c12 (racemic) [Example 113, (±) 6-(6-phenyl-3-((4-(trifluoromethyl)phenyl)thio)-1H-indole-4-carboxamido)spiro[3.3]heptane-2-carboxylic acid] | < 100 nM
3 | N#Cc1cccc(-c2cc(C(=O)NC3CC4(C3)CC(C(=O)O)C4)c3c(Sc4ccc(C(F)(F)F)cc4)c[nH]c3c2)c1 (racemic) [Example 114, (±) 6-(6-(3-cyanophenyl)-3-((4-(trifluoromethyl)phenyl)thio)-1H-indole-4-carboxamido)spiro[3.3]heptane-2-carboxylic acid] | < 100 nM
4 | NC(=O)c1cccc(-c2cc(C(=O)NC3CC4(C3)CC(C(=O)O)C4)c3c(Sc4ccc(C(F)(F)F)cc4)c[nH]c3c2)c1 (racemic) [Example 115, (±) 6-(6-(3-carbamoylphenyl)-3-((4-(trifluoromethyl)phenyl)thio)-1H-indole-4-carboxamido)spiro[3.3]heptane-2-carboxylic acid] | 100 to 1000 nM
5 | CC(c1ccc(C(F)(F)F)cc1)n1ccc2cc(-c3ccccc3)cc(C(=O)NCc3ccc(C(=O)O)cc3)c21 (racemic) [Example 178, (±) 4-((5-phenyl-1-(1-(4-(trifluoromethyl)phenyl)ethyl)-1H-indole-7-carboxamido)methyl)benzoic acid] | < 100 nM
6 | CC(NC(=O)c1cc(-c2ccccc2)cc2cnn(Cc3cccc(C(F)(F)F)c3)c12)[C@H]1CC[C@H](C(=O)O)CC1 (mixture of isomers) [Example 222, (±) (1r,4r)-4-1-(5-phenyl-1-(3-(trifluoromethyl)benzyl)-1H-indazole-7-carboxamido)ethyl)cyclohexane-1-carboxylic acid] | < 100 nM
7 | C[C@@H](NC(=O)c1cc(-c2ccc(F)cc2)cc2ccn(Cc3ccc(C(F)(F)F)cc3)c12)c1ccc(C(=O)O)cc1 [Example 3, (R)-4-(1-(5-(4-fluorophenyl)-1-(4-(trifluoromethyl)benzyl)-1H-indole-7-carboxamido)ethyl)benzoic acid] | ≥ 1000 nM
8 | C[C@@H](NC(=O)c1cc(-c2ccccc2)cc2ccn(Cc3ccc(C(F)(F)F)cc3)c12)c1ccc(C(=O)O)cc1 [Example 4, (R)-4-(1-(5-phenyl-1-(4-(trifluoromethyl)benzyl)-1H-indole-7-carboxamido)ethyl)benzoic acid] | ≥ 1000 nM
9 | O=C(O)c1ccc(C2(NC(=O)c3cc(-c4ccc(F)cc4)cc4ccn(Cc5ccc(C(F)(F)F)cc5)c34)CC2)cc1 [Example 5, 4-(1-(5-(4-fluorophenyl)-1-(4-(trifluoromethyl)benzyl)-1H-indole-7-carboxamido)cyclopropyl)-benzoic acid] | 100 to 1000 nM
10 | O=C(O)c1ccc(C2(NC(=O)c3cc(-c4ccccc4)cc4ccn(Cc5ccc(C(F)(F)F)cc5)c34)CC2)cc1 [Example 6, 4-(1-(5-phenyl-1-(4-(trifluoromethyl)benzyl)-1H-indole-7-carboxamido)cyclopropyl)benzoiacid] | 100 to 1000 nM
11 | O=C(O)c1ccc(CNC(=O)c2cc(-c3ccc(F)c(F)c3)cc3ccn(Cc4ccc(C(F)(F)F)cc4)c23)cc1 [Example 8, 4-((5-(3,4-difluorophenyl)-1-(4-(trifluoromethyl)benzyl)-1H-indole-7-carboxamido)methyl)benzoic acid] | < 100 nM
12 | O=C(O)c1ccc(CNC(=O)c2cc(-c3cccc(C(F)(F)F)c3)cc3ccn(Cc4ccc(C(F)(F)F)cc4)c23)cc1 [Example 10, 4-((1-(4-(trifluoromethyl)benzyl)-5-(3-(trifluoromethyl)phenyl)-1H-indole-7-carboxamido)methyl)benzoic acid] | 100 to 1000 nM
13 | O=C(O)c1ccc(CNC(=O)c2cc(-c3cc(F)cc(C(F)(F)F)c3)cc3ccn(Cc4ccc(C(F)(F)F)cc4)c23)cc1 [Example 11, 4-((5-(3-fluoro-5-(trifluoromethyl)phenyl)-1-(4-(trifluoromethyl)benzyl)-1H-indole-7-carboxamido)methyl)benzoic acid] | < 100 nM
14 | C[C@@H](NC(=O)c1cc(-c2cccc(C#N)c2)cc2ccn(Cc3ccc(C(F)(F)F)cc3)c12)c1ccc(C(=O)O)cc1 [Example 12, (R)-4-(1-(5-(3-cyanophenyl)-1-(4-(trifluoromethyl)benzyl)-1H-indole-7-carboxamido)ethyl) benzoic acid] | ≥ 1000 nM
15 | C[C@@H](NC(=O)c1cc(-c2ccc(F)c(F)c2)cc2ccn(Cc3ccc(C(F)(F)F)cc3)c12)c1ccc(C(=O)O)cc1 [Example 13, (R)-4-(1-(5-(3,4-difluorophenyl)-1-(4-(trifluoromethyl)benzyl)-1H-indole-7-carboxamido)ethyl)benzoic acid] | ≥ 1000 nM
16 | C[C@@H](NC(=O)c1cc(-c2cc(F)cc(F)c2)cc2ccn(Cc3ccc(C(F)(F)F)cc3)c12)c1ccc(C(=O)O)cc1 [Example 14, (R)-4-(1-(5-(3,5-difluorophenyl)-1-(4-(trifluoromethyl)benzyl)-1H-indole-7-carboxamido)ethyl) benzoic acid] | ≥ 1000 nM
17 | C[C@@H](NC(=O)c1cc(-c2cccc(C(F)(F)F)c2)cc2ccn(Cc3ccc(C(F)(F)F)cc3)c12)c1ccc(C(=O)O)cc1 [Example 15, (R)-4-(1-(1-(4-(trifluoromethyl)benzyl)-5-(3-(trifluoromethyl)phenyl)-1H-indole-7-carboxamido)ethyl) benzoic acid] | ≥ 1000 nM
18 | C[C@@H](NC(=O)c1cc(-c2cc(F)cc(C(F)(F)F)c2)cc2ccn(Cc3ccc(C(F)(F)F)cc3)c12)c1ccc(C(=O)O)cc1 [Example 16, (R)-4-(1-(5-(3-fluoro-5-(trifluoromethyl)phenyl)-1-(4-(trifluoromethyl)benzyl)-1H-indole-7-carboxamido)ethyl)benzoic acid] | ≥ 1000 nM
19 | N#Cc1cccc(-c2cc(C(=O)NC3(c4ccc(C(=O)O)cc4)CC3)c3c(ccn3Cc3ccc(C(F)(F)F)cc3)c2)c1 [Example 17, 4-(1-(5-(3-cyanophenyl)-1-(4-(trifluoromethyl)benzyl)-1H-indole-7-carboxamido)cyclopropyl)benzoic acid] | < 100 nM
20 | O=C(O)c1ccc(C2(NC(=O)c3cc(-c4ccc(F)c(F)c4)cc4ccn(Cc5ccc(C(F)(F)F)cc5)c34)CC2)cc1 [Example 18, 4-(1-(5-(3,4-difluorophenyl)-1-(4-(trifluoromethyl)benzyl)-1H-indole-7-carboxamido)cyclopropyl)benzoic acid] | 100 to 1000 nM
21 | O=C(O)c1ccc(C2(NC(=O)c3cc(-c4cc(F)cc(F)c4)cc4ccn(Cc5ccc(C(F)(F)F)cc5)c34)CC2)cc1 [Example 19, 4-(1-(5-(3,5-difluorophenyl)-1-(4-(trifluoromethyl)benzyl)-1H-indole-7-carboxamido)cyclopropyl)benzoic acid] | ≥ 1000 nM
22 | O=C(O)c1ccc(C2(NC(=O)c3cc(-c4cccc(C(F)(F)F)c4)cc4ccn(Cc5ccc(C(F)(F)F)cc5)c34)CC2)cc1 [Example 20, 4-(1-(1-(4-(trifluoromethyl)benzyl)-5-(3-(trifluoromethyl)phenyl)-1H-indole-7-carboxamido)cyclopropyl)benzoic acid] | ≥ 1000 nM
23 | O=C(O)c1ccc(C2(NC(=O)c3cc(-c4cc(F)cc(C(F)(F)F)c4)cc4ccn(Cc5ccc(C(F)(F)F)cc5)c34)CC2)cc1 [Example 21, 4-(1-(5-(3-fluoro-5-(trifluoromethyl)phenyl)-1-(4-(trifluoromethyl)benzyl)-1H-indole-7-carboxamido)cyclopropyl)benzoic acid] | 100 to 1000 nM
24 | N#Cc1cccc(-c2ccc(C(=O)NCc3ccc(C(=O)O)cc3)c3c2ccn3Cc2ccc(C(F)(F)F)cc2)c1 [Example 22, 4-((4-(3-cyanophenyl)-1-(4-(trifluoromethyl)benzyl)-1H-indole-7-carboxamido)methyl)benzoic acid] | 100 to 1000 nM

— patent publication US20250179017A1 (GUANGDONG NEWOPP BIOPHARMACEUTICALS CO., LTD., priority 2022, published 2025)
